According to patent publication US9657351B2, “MRNA-based gene expression for personalizing patient cancer therapy with an MDM2 antagonist” (Hoffmann-La Roche Inc., priority 2013, dated 2017):
pIC50: −log10 of the molar value.

What was measured:
Experiment in all cases: COMPOUND A In Vitro Assay
Format in all cases: cell-based
10C9 = conditions: Homo sapiens
Source text: (§1) To generate an MDM2 antagonist therapy predictive signature, the response of MDM2 antagonist therapy in vitro with gene expression profiling (FIG. 1) is combined. A bank of 287 human cancer cell lines, collectively termed the Cell Lines for Oncology/Chugai ACcumulative Tumour EncycLopedia (CELLO/CACTEL), representing a broad array of diverse human cancer tumor types are subject to evaluation using several high-throughput genomic technology platforms. The mutational status of nucleic acids from each cell line is determined by exome sequencing. Messenger RNA (mRNA) expression levels at baseline, prior to MDM2 antagonist therapy, are obtained via RNA sequencing. MDM2 antagonist therapy COMPOUND A, sometimes referred to herein as RG7112, responses are obtained by assays known to those skilled in the art such as RNA sequencing and microarray measurement using Gene Chip Human Genome U133 Plus 2.0 Array. The MDM2 therapy responses are obtained by high throughout screening assays. Depending on their responses to COMPOUND A these cell lines are classified as either sensitive, defined as IC50<=1, or resistant, defined as IC50>=10.
(§2) 281 cells are treated with MDM2 antagonists and the IC50 (therapy response) is generated. The cell lines span a broad range of tumor cell types of derivation.

8305C = conditions: Homo sapiens, Thyroid gland, TP53 Mutant
Source text: as §1, §2

A-172 = conditions: Homo sapiens
Source text: as §1, §2

A-204 = conditions: Homo sapiens, A204, Muscle, TP53 Mutant
Source text: as §1, §2

A2058 = conditions: Homo sapiens, Skin, TP53 Mutant
Source text: as §1, §2

ACHN = conditions: Homo sapiens
Source text: as §1, §2

AsPC-1 = conditions: Homo sapiens, ASPC1, Pancreas, TP53 Mutant
Source text: as §1, §2

BFTC-905 = conditions: Homo sapiens, Urinary, bladder, TP53 Mutant
Source text: as §1, §2

BT-483 = conditions: Homo sapiens, Breast, mammary gland, TP53 Mutant
Source text: as §1, §2

C32 = conditions: Homo sapiens, Skin, TP53 Wild type
Source text: as §1, §2

CCRF-CEM = conditions: Homo sapiens, Lymphocyte T, peripheral blood, TP53 Mutant
Source text: as §1, §2

COLO 201 = conditions: Homo sapiens, Intestine, large, colon, TP53 Mutant
Source text: as §1, §2

Calu-6 = conditions: Homo sapiens, Lung, TP53 Mutant
Source text: as §1, §2

Capan-2 = conditions: Homo sapiens, Pancreas, TP53 Mutant
Source text: as §1, §2

HCC38 = conditions: Homo sapiens, Breast, mammary gland, TP53 Mutant
Source text: as §1, §2

HL-60 = conditions: Homo sapiens, Blood, TP53 Mutant
Source text: as §1, §2

HUP-T4 = conditions: Homo sapiens, Pancreas, TP53 Mutant
Source text: as §1, §2

IMR-32 = conditions: Homo sapiens
Source text: as §1, §2

K-562 = conditions: Homo sapiens, K562, Bone marrow, TP53 Mutant
Source text: as §1, §2

KARPAS-299 = conditions: Homo sapiens, Blood, TP53 Mutant
Source text: as §1, §2

KMS-11 = conditions: Homo sapiens, Lymphocyte, TP53 Wild type
Source text: as §1, §2

KMS-34 = conditions: Homo sapiens, Lymphocyte, TP53 Mutant
Source text: as §1, §2

Kasumi-1 = conditions: Homo sapiens, Lymphocyte, peripheral blood, TP53 Mutant
Source text: as §1, §2

LS1034 = conditions: Homo sapiens, LS-1034, Intestine, large, caecum, TP53 Mutant
Source text: as §1, §2

MDA-MB-157 = conditions: Homo sapiens, Breast, mammary gland, TP53 Mutant
Source text: as §1, §2

MDA-MB-453 = conditions: Homo sapiens, Breast, mammary gland, TP53 Mutant
Source text: as §1, §2

MG-63 = conditions: Homo sapiens, Bone, TP53 Mutant
Source text: as §1, §2

NCI-H748 = conditions: Homo sapiens, Lung, TP53 Mutant
Source text: as §1, §2

NOMO-1 = conditions: Homo sapiens, Bone marrow, TP53 Mutant
Source text: as §1, §2

PC-6 = conditions: Homo sapiens, Lung, TP53 Wild type
Source text: as §1, §2

Raji = conditions: Homo sapiens, Lymphocyte B, TP53 Mutant
Source text: as §1, §2

SK-N-AS = conditions: Homo sapiens, Brain, TP53 Mutant
Source text: as §1, §2

SK-N-DZ = conditions: Homo sapiens, Brain, TP53 Mutant
Source text: as §1, §2

SNU-16 = conditions: Homo sapiens, Stomach, TP53 Mutant
Source text: as §1, §2

SW620 = conditions: Homo sapiens, SW-620, Intestine, large, colon, TP53 Mutant
Source text: as §1, §2

U-118 MG = conditions: Homo sapiens, Brain, TP53 Mutant
Source text: as §1, §2

YAPC = conditions: Homo sapiens, Pancreas, TP53 Mutant
Source text: as §1, §2

`CCOc1cc(C(C)(C)C)ccc1C1=N[C@@](C)(c2ccc(Cl)cc2)[C@@](C)(c2ccc(Cl)cc2)N1C(=O)N1CCN(CCCS(C)(=O)=O)CC1` [COMPOUND A] showed a pIC50 (10C9; 10C9, Lymphocyte B, TP53 Mutant) of 4.72, a pIC50 (10C9; 10C9 cells) of 4.72 and a pIC50 (8305C) of 4.62. It also gave a pIC50 (A-172; A 172, A-172, Brain, TP53 Wild type) of 6.24, a pIC50 (A-172; A 172, A-172 cells) of 6.22 and a pIC50 (A-204) of 5.08. The pIC50 (A2058) was 4.77, the pIC50 (ACHN; ACHN cells) was 6.52 and the pIC50 (ACHN; Kidney, TP53 Wild type) was 6.54. The pIC50 (AsPC-1) was 4.72, the pIC50 (BFTC-905) was 4.72 and the pIC50 (BT-483) was 4.70. It also gave a pIC50 (C32) of 5.52, a pIC50 (CCRF-CEM) of 5.01 and a pIC50 (COLO 201) of 5.00. It also gave a pIC50 (Calu-6) of 4.77, a pIC50 (Capan-2) of 5.04 and a pIC50 (HCC38) of 4.92. It also gave a pIC50 (HL-60) of 5.15, a pIC50 (HUP-T4) of 4.77 and a pIC50 (IMR-32; IMR-32, IMR-32, Brain, TP53 Wild type) of 6.37. It also gave a pIC50 (IMR-32; IMR-32, IMR-32 cells) of 6.40, a pIC50 (K-562) of 4.80 and a pIC50 (KARPAS-299) of 4.72. The pIC50 (KMS-11) was 4.92, the pIC50 (KMS-34) was 5.01 and the pIC50 (Kasumi-1) was 4.68. It also gave a pIC50 (LS1034) of 5.24, a pIC50 (MDA-MB-157) of 4.70 and a pIC50 (MDA-MB-453) of 4.70. It also gave a pIC50 (MG-63) of 4.80, a pIC50 (NCI-H748) of 4.80 and a pIC50 (NOMO-1) of 5.20. The pIC50 (PC-6) was 5.09, the pIC50 (Raji) was 5.52 and the pIC50 (SK-N-AS) was 4.89. For the same molecule, the pIC50 (SK-N-DZ) was 5.24, the pIC50 (SNU-16) was 5.00 and the pIC50 (SW620) was 5.01. For the same molecule, the pIC50 (U-118 MG) was 4.72 and the pIC50 (YAPC) was 4.74.
